These results are taken from patent US20240327393A1 (SIRONAX LTD., priority 2021, published 2024).

This experiment has as its system HT-1080 (ATCC, CCL-121) cells. Put plainly: HT-1080 cell viability assay with ferroptosis inducer RSL3 (Cell Titer-Glo). It counts as cell-based. Particulars: Homo sapiens; HT-1080 cells treated with RSL3; 3-fold, 10-point dilution, 1.1 μM highest concentration; Table 3; read-out: EC50 (nM), ferroptosis inhibitory activity. The method, boiled down:
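EC50 was derived by sigmoidal dose-response regression of CellTiter-Glo luminescence viability, expressed relative to untreated wells. Compounds were tested in a ten-point, threefold dilution series (highest 1.1 μM) in the presence of the ferroptosis inducer RSL3. HT-1080 cells had been seeded at 6000 per well and grown overnight first.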
On the technique in general: Cellular ATP, detected with luciferase, serves as a proxy for viable cell number.
Regarding `Cc1cc(N2CCC(OC(F)(F)F)C2)ccc1Nc1ccc2c(c1)OCC(=O)N2` (centres unmarked) [Compound 589, 7-((2-methyl-4-(3-(trifluoromethoxy)pyrrolidin-1-yl)phenyl)amino)-2H-benzo[b][1,4]oxazin-3(4H)-one], the EC50 (in general, the concentration at which the effect is half-maximal) lay within 0.1 to 100 nM.

`Cc1cc(N2CC(C(F)(F)F)C2)ccc1Nc1ccc2c(c1)OCCC(=O)N2` [Compound 590]: the 50% effective concentration (EC50) is 0.1 to 100 nM.

Consider `Cc1cc(N2CCC(OC(F)(F)F)C2)ccc1Nc1ccc2c(c1)OCCC(=O)N2` (centres unmarked) [Compound 591, 8-((2-methyl-4-(3-(trifluoromethoxy)pyrrolidin-1-yl)phenyl)amino)-2,3-dihydrobenzo[b][1,4]oxazepin-4(5H)-one], for which the EC50 was in the range of 0.1 to 100 nM.

Consider `Cc1cc(N2CCC(C(F)(F)F)CC2)ccc1Nc1ccc2c(c1)OC(CN)C(=O)N2` (centres unmarked) [Compound 592, 2-(aminomethyl)-7-((2-methyl-4-(4-(trifluoromethyl)piperidin-1-yl)phenyl)amino)-2H-benzo[b][1,4]oxazin-3(4H)-one], for which the EC50 was 0.1 to 100 nM.

Regarding `Cc1cc(N2CCC(C(F)(F)F)CC2)ccc1Nc1ccc2c(c1)SCC(=O)N2` [Compound 593, 7-((2-methyl-4-(4-(trifluoromethyl)piperidin-1-yl)phenyl)amino)-2H-benzo[b][1,4]thiazin-3(4H)-one], the EC50 lay within 0.1 to 100 nM.

Consider `Cc1cc(N2CCC(C(F)(F)F)CC2)ccc1Nc1ccc2c(c1)OCCC(=O)N2C` [Compound 594, 5-methyl-8-((2-methyl-4-(4-(trifluoromethyl)piperidin-1-yl)phenyl)amino)-2,3-dihydrobenzo[b][1,4]oxazepin-4(5H)-one], for which the EC50 is 0.1 to 100 nM.

`Cc1cc(N2CC(C)(F)C2)ccc1Nc1ccc2c(c1)OCC(=O)N2` [Compound 595, 7-((4-(3-fluoro-3-methylazetidin-1-yl)-2-methylphenyl)amino)-2H-benzo[b][1,4]oxazin-3(4H)-one]: the EC50 was in the range of 0.1 to 100 nM.

`CC1CCN(c2ccc(Nc3cnc4c(c3)OCC(=O)N4)cc2)CC1` [Compound 596, 7-((4-(4-methylpiperidin-1-yl)phenyl)amino)-2H-pyrido[3,2-b][1,4]oxazin-3(4H)-one]: the EC50 fell in the range of 0.1 to 100 nM.

Turning to `Cc1cc(N2CCC(F)(F)C2)ccc1Nc1ccc2c(c1)OCC(=O)N2` [Compound 597, 7-((4-(3,3-difluoropyrrolidin-1-yl)-2-methylphenyl)amino)-2H-benzo[b][1,4]oxazin-3(4H)-one], the EC50 was in the range of 0.1 to 100 nM.

In the case of `Cc1cc(N2CCC(C(F)(F)F)CC2)ccc1Nc1ccc2c(c1)CC(N)C(=O)N2` (centres unmarked) [Compound 598, 3-amino-6-((2-methyl-4-(4-(trifluoromethyl)piperidin-1-yl)phenyl)amino)-3,4-dihydroquinolin-2(1H)-one], the concentration for a half-maximal effect (EC50) was 0.1 to 100 nM.

For `Cc1cc(N2CCC(F)C2)ccc1Nc1ccc2c(c1)OCC(=O)N2` (centres unmarked) [Compound 599, 7-{[4-(3-fluoropyrrolidin-1-yl)-2-methylphenyl]amino}-2,4-dihydro-1,4-benzoxazin-3-one], the concentration giving a half-maximal response (EC50) was in the range of 0.1 to 100 nM.

Regarding `CC(C)(C)C(=O)NN1C(=O)COc2cc(Nc3ccc(N4CCC(C(F)(F)F)CC4)cc3)ccc21` [Compound 600, N-(3-oxo-7-((4-(4-(trifluoromethyl)piperidin-1-yl)phenyl)amino)-2,3-dihydro-4H-benzo[b][1,4]oxazin-4-yl)pivalamide], the EC50 lay within 0.1 to 100 nM.

As for `Cc1cc(N2CCC(C(F)(F)F)CC2)ccc1Nc1ccc2c(c1)OC[C@H](N)C(=O)N2` [Compound 601, (S)-8-(4-(4-(trifluoromethyl)piperidin-1-yl)-2-methylphenylamino)-3-amino-2,3-dihydrobenzo[b][1,4]oxazepin-4(5H)-one], the EC50 fell in the range of 0.1 to 100 nM.

With `Cc1cc(N2CCC(C(F)(F)F)CC2)ccc1Nc1ccc2c(c1)OC(CO)C(=O)N2` (centres unmarked) [Compound 602, 2-(hydroxymethyl)-7-((2-methyl-4-(4-(trifluoromethyl)piperidin-1-yl)phenyl)amino)-2H-benzo[b][1,4]oxazin-3(4H)-one], the 50% effective concentration (EC50) lay within 0.1 to 100 nM.

As for `CCC1CN(c2ccc(Nc3ccc4c(c3)ncn4C)c(C)n2)CCO1` (centres unmarked) [Compound 603, N-[6-(2-ethylmorpholin-4-yl)-2-methylpyridin-3-yl]-1-methyl-1,3-benzodiazol-5-amine], the EC50 lay in the range of 0.1 to 100 nM.

As for `Cc1cc(N2CCC(C)C2)ccc1Nc1ccc2c(c1)OCC(=O)N2` (centres unmarked) [Compound 604, 7-((2-methyl-4-(3-methylpyrrolidin-1-yl)phenyl)amino)-2H-benzo[b][1,4]oxazin-3(4H)-one], the EC50 lay within 0.1 to 100 nM.

`Cc1nc(N2C[C@@H](C)O[C@@H](C)C2)ccc1Nc1ccc2c(c1)ncn2C` [Compound 605, N-(6-((2S,6R)-2,6-dimethylmorpholino)-2-methylpyridin-3-yl)-1-methyl-1H-benzo[d] imidazol-5-amine]: the EC50 was in the range of 0.1 to 100 nM.

For `Cc1cc(N2CCC(C(F)(F)F)CC2)ccc1Nc1ccn2ccnc2c1` [Compound 606, N-(2-methyl-4-(4-(trifluoromethyl)piperidin-1-yl)phenyl) imidazo[1,2-a]pyridin-7-amine], the EC50 was in the range of 100 to 1000 nM.

With `Cc1cc(N2CCC(C(F)(F)F)CC2)ccc1Nc1ccc2c(c1)OC(CN)C(=O)N2C` (centres unmarked) [Compound 607, 2-(aminomethyl)-4-methyl-7-((2-methyl-4-(4-(trifluoromethyl)piperidin-1-yl)phenyl)amino)-2H-benzo[b][1,4]oxazin-3(4H)-one], the EC50 is 0.1 to 100 nM.

In the case of `Cc1cc(N2CCC(C(F)(F)F)CC2)ccc1Nc1ccc2c(c1)OCC(=O)NC2` [Compound 608, 8-((2-methyl-4-(4-(trifluoromethyl)piperidin-1-yl)phenyl)amino)-4,5-dihydrobenzo[f][1,4]oxazepin-3(2H)-one], the EC50 is 0.1 to 100 nM.

Take `CNCc1cnc2cc(Nc3ccc(N4CCC(C(F)(F)F)CC4)cc3C)ccn12` [Compound 609, N-(2-methyl-4-(4-(trifluoromethyl)piperidin-1-yl)phenyl)-3-((methylamino)methyl)imidazo[1,2-a]pyridin-7-amine]: the EC50 lay in the range of 0.1 to 100 nM.

For `Cc1cc(N2CC(F)C2)ccc1Nc1ccc2c(c1)OCCC(=O)N2` [Compound 610, 8-((4-(3-fluoroazetidin-1-yl)-2-methylphenyl)amino)-2,3-dihydrobenzo[b][1,4]oxazepin-4(5H)-one], the EC50 lay in the range of 0.1 to 100 nM.

Take `Cc1cc(N2CC(F)C2)ccc1Nc1ccc2c(c1)OC[C@H](N)C(=O)N2` [Compound 611, (S)-3-amino-8-((4-(3-fluoroazetidin-1-yl)-2-methylphenyl)amino)-2,3-dihydrobenzo[b][1,4]oxazepin-4(5H)-one]: the EC50 was in the range of 0.1 to 100 nM.

Turning to `Cc1cc(N2CCC(C(F)(F)F)CC2)ccc1Nc1ccn2nccc2c1` [Compound 612, N-(2-methyl-4-(4-(trifluoromethyl)piperidin-1-yl)phenyl) pyrazolo[1,5-a]pyridin-5-amine], the EC50 lay in the range of 0.1 to 100 nM.

As for `Cc1cc(N2CCC(C(F)(F)F)C2)ccc1Nc1ccc2c(c1)OCC(N)C(=O)N2` (centres unmarked) [Compound 613, 3-amino-8-((2-methyl-4-(3-(trifluoromethyl)pyrrolidin-1-yl)phenyl)amino)-2,3-dihydrobenzo[b][1,4]oxazepin-4(5H)-one], the EC50 was 0.1 to 100 nM.

`Cc1cc(N2CC(OC(F)(F)F)C2)ccc1Nc1ccc2c(c1)OCCC(=O)N2` [Compound 614, 8-((2-methyl-4-(3-(trifluoromethoxy)azetidin-1-yl)phenyl)amino)-2,3-dihydrobenzo[b][1,4]oxazepin-4(5H)-one]: the 50% effective concentration (EC50) fell in the range of 0.1 to 100 nM.

For `Cc1cc(N2CCC(C(F)(F)F)CC2)cc2c1[nH]c1cc3cnn(C(N)=O)c3cc12` [Compound 615, 6-methyl-8-(4-(trifluoromethyl)piperidin-1-yl)pyrazolo[4,3-b]carbazole-1(5H)-carboxamide], the EC50 was 1000 to 10000 nM.

As to `COC1(C(F)(F)F)CCN(c2ccc(Nc3ccc4c(c3)OCC(=O)N4)c(C)c2)C1` (centres unmarked) [Compound 616, 7-((4-(3-methoxy-3-(trifluoromethyl)pyrrolidin-1-yl)-2-methylphenyl)amino)-2H-benzo[b][1,4]oxazin-3(4H)-one], the EC50 is 0.1 to 100 nM.

Take `Cc1cc(N2CCC(O)(C(F)(F)F)C2)ccc1Nc1ccc2c(c1)OCC(=O)N2` (centres unmarked) [Compound 617, 7-((4-(3-hydroxy-3-(trifluoromethyl)pyrrolidin-1-yl)-2-methylphenyl)amino)-2H-benzo[b][1,4]oxazin-3(4H)-one]: the EC50 lay in the range of 0.1 to 100 nM.

In the case of `COC1CCN(c2ccc(Nc3ccc4c(c3)OCC(=O)N4)c(C)c2)C1` (centres unmarked) [Compound 618, 7-{[4-(3-methoxypyrrolidin-1-yl)-2-methylphenyl]amino}-2,4-dihydro-1,4-benzoxazin-3-one], the concentration for a half-maximal effect (EC50) lay within 0.1 to 100 nM.

As for `O=C1COc2cc(Nc3ccc(N4CCC(C(F)(F)F)CC4)cc3)cc(F)c2N1` [Compound 619, 5-fluoro-7-({4-[4-(trifluoromethyl)piperidin-1-yl]phenyl}amino)-2,4-dihydro-1,4-benzoxazin-3-one], the EC50 lay in the range of 0.1 to 100 nM.

With `COCCn1c(=O)n(C)c2ccc(Nc3ccc(N4CCC(C(F)(F)F)C4)cc3C)cc21` (centres unmarked) [Compound 620, 3-(2-methoxyethyl)-1-methyl-5-((2-methyl-4-(3-(trifluoromethyl)pyrrolidin-1-yl)phenyl)amino)-1,3-dihydro-2H-benzo[d]imidazol-2-one], the EC50 fell in the range of 0.1 to 100 nM.

As to `Cc1cc(N2CC(OC(F)(F)F)C2)ccc1Nc1ccc2c(c1)OCC(=O)N2` [Compound 621, 7-((2-methyl-4-(3-(trifluoromethoxy)azetidin-1-yl)phenyl)amino)-2H-benzo[b][1,4]oxazin-3(4H)-one], the EC50 lay in the range of 0.1 to 100 nM.

As to `Cc1cc(N2CCC(F)(F)C2)ccc1Nc1ccc2c(c1)OCCC(=O)N2` [Compound 622, 8-((4-(3,3-difluoropyrrolidin-1-yl)-2-methylphenyl)amino)-2,3-dihydrobenzo[b][1,4]oxazepin-4(5H)-one], the EC50 lay within 0.1 to 100 nM.

`Cc1cc(N2CC(C)(F)C2)ccc1Nc1ccc2c(c1)OCCC(=O)N2` [Compound 623]: the EC50 lay within 0.1 to 100 nM.
